Measured values reported in patent EP1858912B1, “COMPOUNDS FOR REDUCING AGGREGATION OF AMYLOID BETA-PEPTIDE” (Alphabeta AB, priority 2005, dated 2012).
Where a SMILES comes first, the peptide text is derived from it. Bridges are numbered along the chain shown (N, C = ends). Roman numbers before positions name the chains, in order. [ ]: non-standard residue; d: D form. Dab = NCC[C@H](N)C(=O)O

Legend:
Aβ(12-28) [1] = test: Circular dichroism spectroscopy of Aβ secondary structure; format: biochemical; conditions: 1:1 molar ratio, sodium phosphate buffer pH 7, 30% (v/v) trifluoroethanol, 20°C; compared with Aβ(12-28) alone; ligand spectrum subtracted
Procedure: Compounds described herein can be tested for their ability to affect the secondary structure of an Aβ peptide. As an example, addition of ligands to Aβ(1-40) or Aβ(12-28) in solution increased the helical content of Aβ peptides, as measured by circular dichroism (CD) spectroscopy. This is evidenced by a decrease in molar ellipticity at 208 and 222 nm, and an increase in molar ellipticity at 190-195 nm (an example is shown in Fig. 6). In these experiments, Aβ peptides (concentration about 20 µM to 100 µM) were mixed with ligands in ligand/Aβ molar ratios ranging between 1 and 10. The measurements were performed in phosphate buffer (as described below for thioflavin T measurements) or in phosphate buffer containing 30% trifluoroethanol. The samples were incubated at 37°C with or without shaking before measurements. CD measurements were performed at room temperature in a Jasco 810 instrument using a 1 mm cuvette (sample volume 200-300 µl). For each sample, three spectra were accumulated. Spectra were measured between 260 and 185 nm, and the spectra of buffer and ligands alone were subtracted from the spectra of the mixtures. Molar ellipticity values were calculated using the recorded spectra and the peptide concentrations, and expressed in kdeg x cm^2/dmol. […]

[2] = test system: wild type Drosophila (WIII8) that do not express Aβ(1-42); test: Longevity in control flies not expressing Aβ; format: in vivo; conditions: 650 µM in the food; control flies not expressing Aβ (Fig. 13)
[3] = test system: Drosophila melanogaster express Aβ1-42 in neurons; test: Longevity in Drosophila model of Alzheimer's disease; format: in vivo
Description: A model of Alzheimer's disease was used in which Drosophila melanogaster express Aβ1-42 in neurons (Crowther et al., 2005, Neuroscience 132:123-135).

Aβ(1-40) [4] = test: Tryptophan fluorescence emission of ligand (binding to Aβ); conditions: excitation 280 nm; for emission maximum: sodium phosphate buffer pH 7, 30% (v/v) trifluoroethanol, 20°C
Procedure: (§1) In these experiments, shifts in fluorescence emission were used to indicate binding. In these experiments, ligand 3 (about 10 µM) was dissolved in sodium phosphate buffer, pH 7, with or without trifluoroethanol present. Fluorescence was measured in a Hitachi F-4000 spectrophotometer, and emission was measured between 300 and 430 nm after excitation at 280 nm.
(§2) When Aβ(1-40) or Aβ(12-28) was added to a solution containing ligand 3, the fluorescence yield was increased (e.g., Fig 7) and the wavelength at maximum emission was shifted from about 348 nm to 344 nm.

Aβ(12-28) [5] = test: as above; conditions: after addition of Aβ(12-28); excitation 280 nm
Procedure: as §1, §2

Aβ(1-40) [6] = test: Thioflavin T fluorescence assay of Aβ fibril formation; format: biochemical
Procedure: Fibril formation of Aβ(1-40) or Aβ(12-28) with and without the presence of the ligands was assessed by the fibril-binding dye thioflavin T (ThT). Solutions containing Aβ peptides in concentrations from about 20 µM to 200 µM without ligand present, or at different peptide/ligand ratios were prepared in 10 mM sodium phosphate buffer, pH 7. The samples were incubated at 37°C under constant gentle shaking. At different time points aliquots were removed and ThT measurements performed using 10 µM ThT in 10 mM sodium phosphate buffer, pH 6, containing 150mMNaCl.
The samples were incubated for 10-15 minutes in the dark before ThT fluorescence measurements were made. Fluorescence was measured using a FarCyte™ (Tecan) instrument with excitation at 440 nm and emission at 480 nm. All samples were measured in duplicates.

fluorescence yield (Aβ(1-40) [4]; after addition of Aβ(1-40)): increased
wavelength at maximum emission (Aβ(1-40) [4]; after addition of Aβ(1-40)): 344 nm
emission maximum (Aβ(1-40) [4]; complex with Aβ(1-40), 1:1 molar ratio): 344 nm
wavelength at maximum emission (Aβ(1-40) [4]; ligand about 10 µM before addition of Aβ): about 348 nm
emission maximum (Aβ(1-40) [4]; ligand only): 348 nm
fluorescence yield (Aβ(12-28) [5]): increased
wavelength at maximum emission (Aβ(12-28) [5]): 344 nm
Compound: CC(=O)N[C@H](CCC(=O)O)C(=O)N[C@@H](CCNC(=O)[C@@H](Cc1c[nH]c2ccccc12)NC(=O)[C@@H](N)CCCNC(=N)N)C(=O)O [ligand 3, Ac-D-Glu-Dab(Arg-D-Trp)] (I: H-Arg-[dW] / II: Ac-[dE]-[Dab]-OH; amide I:C-II:2)
circular dichroism spectra (Aβ(12-28) [1]): lowest value at 222 nm and highest value at 195 nm
effects on mean survival (longevity) [2]: absence of a statistically significant difference
mean survival time ([3]; 134 µM in the food, 29°C and high humidity (Fig. 12)): increased the mean survival time
mean survival time ([3]; 650 µM in the food, 28°C and low humidity, p=0.0035 (Fig. 11)): prolonged mean survival time
longevity ([3]; fed from the larval stage, compared to untreated flies, two different experimental conditions): significant increase in longevity
Aβ(1-40) fibril formation, as measured by ThT binding (Aβ(1-40) [6]; 1:1 ligand/peptide molar ratio, 1.5 hours at 37°C (Fig. 9)): effective in reducing Aβ(1-40) fibril formation
ThT fluorescence induced by Aβ(1-40) (Aβ(1-40) [6]; different periods of incubation at 37°C, 10 mM sodium phosphate pH 7, 5:1 or 10:1 ligand/Aβ molar ratio (Fig. 8)): practically abolished
ThT fluorescence (Aβ(1-40) [6]; ligand/Aβ ratio 5, compared with 1:1, 1.5 hours at 37°C (Fig. 9)): further reduction of ThT fluorescence
ThT fluorescence (Aβ(1-40) [6]; ligand/Aβ ratio 10, 1.5 hours at 37°C (Fig. 9)): approximately the same result as a ligand/Aβ ratio of 5
